Results published in patent publication EP1963277B1, “FLUORINATED COMPOUNDS” (priority 2005, dated 2007).
Like-named read-outs stand apart in the source and are kept apart here.

Assays:
Format in all cases: in vivo
[1] = test system: FCA-treated rats; assay: Freund's Complete Adjuvant (FCA) model, mechanical allodynia (modified Randall-Selitto method); details: p.o.; for paw withdrawal threshold (g), Post Admin 30 min / paw withdrawal threshold (g), Post Admin 60 min / paw withdrawal threshold (g), Post Admin 180 min: 60 mg/kg, ** P<0.01, *** P<0.001 vs Pre-Admin.; for paw withdrawal threshold (g), Pre-Admin. 0 min: group later given 60 mg/kg, baseline before administration
Procedure: (§1) Administration of FCA to the hind paw of an animal induces the formation of a localized edema and has been widely used as a model of chronic inflammatory pain. 100 µl of FCA is injected subcutaneously into the dorsal aspect of the left hind paw of the rats. The edema appears within 2 h reaches a peak by 6h and lasts for about 7 days. The effects of compounds on mechanical allodynia and paw volume were studied 2 days after FCA administration.
The effect of the compounds in alleviating mechanical allodynia was assessed in the FCA-treated rats using the modified Randall-Selitto method (Analgesy-Meter, Ugo Basile, Italy). The animal's paw is placed on a small plinth under a cone-shaped pusher. Increasing force is applied to the paw by depressing a pedal until vocalization or withdrawal of the paw occurs. The minimum force required to elicit this vocalization/withdrawal is the paw pressure threshold. The cut-off was set at 150 g.
After the initial basal (control) readings were taken, the test compound (60 mg/kg)/vehicle was administered orally in a volume of 10 ml/kg. The paw pressure thresholds were measured 30, 60 and 180 min post administration. […] Some of the compounds were effective even at 60 and 180 min post administration.

[2] = test system: rats; assay: Persistent Inflammatory Pain (Formalin Model); details: Rattus norvegicus, formalin test, 30 min pretreatment; for inhibition at 30 mg/kg: ip, i.p.; for inhibition at 60 mg/kg: po, p.o.
Procedure: The formalin test is a chemically-induced tonic pain model in which injection of formalin into a hind paw elicits a biphasic nociceptive behavior. The second phase of formalin response is predominantly due to a central sensitization phenomenon. Most clinically used drugs against neuropathic pain arc active on this second phase of formalin response. Formalin test is accepted as a valid model of persistent clinical pain.
The test was done by pretreating the rats with the test compound and 30 min later (pretreatment time), 50 µl of 2.5% formalin was injected into the right hind paw of the animal. The number of paw licking and flinching episodes were scored for 60 min post-formalin injection.
The compounds were administered either intraperitoneally (30 mg/kg) or orally (60 mg/kg).

[3] = test system: Male, CD-1 mice; assay: Maximal Electroshock Assay (mouse); details: for duration of action: mouse MES, judged by similar potency at 1h and 4h pretreatment timepoints; for Ratio ED50 4h vs. 1h / shift in ED50 for 1 vs. 4h / ED50: mouse; for Ratio ED50 4h vs. 1h / shift in ED50 for 1 vs. 4h: oral; for ED50: oral pretreatment, range in parentheses
Procedure: Male, CD-1 mice (20-30g body weight) were orally pretreated with test compound or vehicle control, and either at 1h or 4h post dose a maximal electroshock (45mA amplitude, 0.2s duration, 60Hz) was applied by corneal electrodes. Protection was defined by the absence of a tonic extensor seizure in the animal within 20s of application of the electrical stimulus, which typically occurred in all vehicle pretreated animals. Animals received only one electroshock and so separate animals were used for the 1h and 4h timepoints. All drugs were administered in multiple doses.

[4] = test system: SNI rats; assay: Spared Nerve Injury (SNI) model, cold allodynia (acetone test); details: for duration (s) of nociceptive response, Post Admin 30 min: *** P<0.001 vs Pre-Admin.; for duration (s) of nociceptive response, Pre-Admin. 0 min: baseline before administration
Procedure: (§2) The compounds were tested for their efficacy in reducing mechanical allodynia and cold allodynia in the spared nerve injury (SNI) model of chronic neuropathic pain. In this model, the left sciatic nerve of the rat is exposed under anesthesia. Two of the branches of the sciatic nerve viz. the common peroneal and tibial nerve are ligated and sectioned. The third branch (sural nerve) is left intact. The animals were allowed a post-operative recovery period of 7 days before they were subjected to any test.
Cold allodynia was assessed by using the acetone test. In this model, 25 µl of acetone is sprayed on to the plantar surface of the hind paw. Evaporation of acetone causes cooling of the skin. The cold stimulus sets up nociceptive responses from the injured paw as evidenced by paw lifting, paw licking and grooming. The duration of the nociceptive responses is noted.
Testing of compounds was done after 21 days post-operatively. After initial basal readings were taken, the test compound or the vehicle was administered (10 ml/kg) either intraperitoneally (30 mg/kg) or orally (60 mg/kg). The readings were taken 30 min after the administration.

[5] = test system: FCA-treated rats; assay: Freund's Complete Adjuvant (FCA) model, paw edema/volume (plethysmometer); details: p.o.; for paw volume (ml), Post Admin 30 min / paw volume (ml), Post Admin 60 min: 60 mg/kg; for paw volume (ml), Pre-Admin. 0 min: group later given 60 mg/kg, baseline before administration
Procedure: as §1
The edema/volume of the paw is a measure of inflammation induced by FCA. This was measured by using a plethysmometer (Ugo Basile, Italy). In this, the paw of the rat is immersed in a reservoir of water and the volume of water displaced indicates the paw volume.
After the initial basal (control) readings were taken, the test compound (60 mg/kg)/vehicle was administered orally in a volume of 10 ml/kg.

[6] = test system: Male, Sprague-Dawley rats; assay: Maximal Electroshock Assay (rat); details: for duration of action: rat MES, judged by similar potency at 0.5h and 4h pretreatment timepoints; for Ratio ED50 4h vs. 0.5h / shift in ED50 for 0.5 vs. 4h / ED50: rat; for Ratio ED50 4h vs. 0.5h / shift in ED50 for 0.5 vs. 4h: oral; for ED50: oral pretreatment, range in parentheses
Procedure: Male, Sprague-Dawley rats (approx. 100g body weight) were prescreened for tonic seizure susceptibility prior to drug testing. […] Protection was defined by the absence of a tonic extensor seizure in the animal within 20s of application of the electrical stimulus, which typically occurred in all vehicle pretreated animals. Animals received only one electroshock on the drug test day and so separate animals were used for the 0.5h and 4h timepoints. All drugs were administered in multiple doses.

[7] = test system: SNI rats; assay: Spared Nerve Injury (SNI) model, mechanical allodynia (Dynamic Plantar Aesthesiometer); details: for withdrawal threshold, Post Admin 30 min / withdrawal threshold, Post Admin 180 min / withdrawal threshold, Post Admin 60 min: *** P<0.001 vs Pre-Admin.; for withdrawal threshold, Pre-Admin. 0 min: baseline before administration
Procedure: as §2
The presence of mechanical allodynia was assessed using the Dynamic Plantar Aesthesiometer (Ugo Basile, Italy) which is a modified version of the Von Frey Hair test. In this, a test filament is positioned below the animal's hind paw and the unit is activated which causes the filament to move up and touch the plantar surface of the hind paw. Increasing force is applied to the paw via the filament. […] The cut-off force is set at 50 g. The tests were done on both the non-injured (control) and the injured (SNI) paw.
Testing of compounds was done after 21 days post-operatively. After initial basal readings were taken, the test compound or the vehicle was administered (10 ml/kg) either intraperitoneally (30 mg/kg) or orally (60 mg/kg). The readings were taken again 30, 60 and 180 min after the compound/vehicle administration.

[8] = *** P<0.001, read-out: %Inhibition Phase I
[9] = *** P<0.001, read-out: %Inhibition Phase II
[10] = ** P<0.01, *** P<0.001, read-out: %Inhibition Phase II
[11] = electroshock 1h post dose, blockade of tonic extensor seizure, read-out: MES oral ED50 1h
[12] = read-out: MES oral ED50 4h, electroshock 4h post dose
[13] = group later given 30 mg/kg, i.p.
[14] = group later given 60 mg/kg, p.o.
[15] = read-out: MES oral ED50 0.5h, electroshock 0.5h post dose

Compound | paw withdrawal threshold (g), Post Admin 30 min [1] | paw withdrawal threshold (g), Post Admin 60 min [1] | paw withdrawal threshold (g), Post Admin 180 min [1] | paw withdrawal threshold (g), Pre-Admin. 0 min [1] | inhibition at 30 mg/kg [2, 8] | inhibition at 30 mg/kg [2, 9] | inhibition at 60 mg/kg [2, 10] | inhibition at 60 mg/kg ([2]; read-out: %Inhibition Phase I) | duration of action [3] | Ratio ED50 4h vs. 1h [3] | shift in ED50 for 1 vs. 4h [3] | ED50 [3, 11] | ED50 [3, 12] | duration (s) of nociceptive response, Post Admin 30 min ([4]; 30 mg/kg, i.p.) | duration (s) of nociceptive response, Post Admin 30 min ([4]; 60 mg/kg, p.o.) | duration (s) of nociceptive response, Pre-Admin. 0 min [4, 13] | duration (s) of nociceptive response, Pre-Admin. 0 min [4, 14] | paw volume (ml), Post Admin 30 min [5] | paw volume (ml), Post Admin 60 min [5] | paw volume (ml), Pre-Admin. 0 min [5] | further results
CC(=O)NC(COC(F)F)C(=O)NCc1ccccc1 (centres unmarked) [Compound 3, 2-(Acetylamino)-N-benzyl-3-(difluoromethoxy)propanamide] | 57.8 ± 4.9** g | 46.7 ± 3.8 g | 37.8 ± 5.4 g | 32.8 ± 6.5 g | 87.9 ± 12.1% | 90.2 ± 6.5% | 46.1 ± 8.7% | 21.4 ± 10.2% | longer than Lacosamide | 3.5 | 1 to 3.5 fold | 5.7 mg/kg | 20 mg/kg | 4.3 ± 1.6*** s | 17.2 ± 6.2*** s | 45.8 ± 9.4 s | 70.7 ± 18.9 s | 2.3 ± 0.1 mL | 2.3 ± .01 mL | 2.3 ± 0.0 mL | duration of action [6]: longer than Lacosamide; Ratio ED50 4h vs. 0.5h [6]: 1.4; shift in ED50 for 0.5 vs. 4h [6]: 1 to 1.4 fold; ED50 [6, 15]: 3 mg/kg; ED50 [6, 12]: 4.2 mg/kg; withdrawal threshold, Post Admin 30 min ([7]; 30 mg/kg, i.p.): 22.5 ± 2.1*** g; withdrawal threshold, Post Admin 180 min ([7]; 30 mg/kg, i.p.): 14.1 ± 1.6*** g; withdrawal threshold, Post Admin 30 min ([7]; 60 mg/kg, p.o.): 19.4 ± 2.3*** g; withdrawal threshold, Post Admin 60 min ([7]; 60 mg/kg, p.o.): 20.6 ± 3.1*** g; withdrawal threshold, Post Admin 180 min ([7]; 60 mg/kg, p.o.): 10.8 ± 1.8 g; withdrawal threshold, Pre-Admin. 0 min [7, 13]: 7.5 ± 1.4 g; withdrawal threshold, Pre-Admin. 0 min [7, 14]: 9.7 ± 2.5 g
CC(=O)NC(COC(F)F)C(=O)NCc1ccc(F)cc1 (centres unmarked) [Compound 4, 2-(Acetylamino)-3-(difluoromethoxy)-N-(4-fluoro-benzyl)propanamide] | 58.3 ± 4.8** g | 49.4 ± 6.4** g | 51.1 ± 8.9** g | 33.9 ± 4.2 g | 94.7 ± 5.3% | 81.6 ± 10% | 41.9 ± 9% | 7.6 ± 6.7% | longer than Lacosamide | 1.0 | 1 to 3.5 fold | 9.8 mg/kg | 9.8 mg/kg | 3.1 ± 2.1*** s | 21.9 ± 6.4*** s | 48.2 ± 10.1 s | 56.2 ± 8.4 s | 2.08 ± 0.0 mL | 2.11 ± 0.0 mL | 2.01 ± 0.0 mL | duration of action [6]: longer than Lacosamide; Ratio ED50 4h vs. 0.5h [6]: 1.0; shift in ED50 for 0.5 vs. 4h [6]: 1 to 1.4 fold; ED50 [6, 15]: 3.3 mg/kg; ED50 [6, 12]: 3.4 mg/kg; withdrawal threshold, Post Admin 30 min ([7]; 30 mg/kg, i.p.): 16.7 ± 1.4*** g; withdrawal threshold, Post Admin 60 min ([7]; 30 mg/kg, i.p.): 15.0 ± 0.8*** g; withdrawal threshold, Post Admin 180 min ([7]; 30 mg/kg, i.p.): 13.2 ± 1.0*** g; withdrawal threshold, Post Admin 30 min ([7]; 60 mg/kg, p.o.): 15.4 ± 1.1*** g; withdrawal threshold, Post Admin 60 min ([7]; 60 mg/kg, p.o.): 16.2 ± 1.7*** g; withdrawal threshold, Post Admin 180 min ([7]; 60 mg/kg, p.o.): 7.9 ± 0.6 g; withdrawal threshold, Pre-Admin. 0 min [7, 13]: 6.7 ± 0.7 g; withdrawal threshold, Pre-Admin. 0 min [7, 14]: 7.5 ± 0.5 g
